Reference: patent US4885283A, “Phosphinic acid derivatives” (Hoffmann-La Roche Inc., priority 1986, dated 1989)

Tests used:
[1] = target: T1, collagenase obtained from a culture of human synovial fibroblasts (Homo sapiens, UniProt P03956); assay: in vitro inhibition of collagenase (microtitre plate assay, 14C-acetylated collagen type I from rat tail tendons as substrate); format: biochemical; details: human synovial fibroblast collagenase, trypsin-activated; 14C-acetylated collagen type I substrate
T1 construct: endogenous in cells; host or cells: culture of human synovial fibroblasts (conditioned medium)
T1 sequence (P03956 100-469): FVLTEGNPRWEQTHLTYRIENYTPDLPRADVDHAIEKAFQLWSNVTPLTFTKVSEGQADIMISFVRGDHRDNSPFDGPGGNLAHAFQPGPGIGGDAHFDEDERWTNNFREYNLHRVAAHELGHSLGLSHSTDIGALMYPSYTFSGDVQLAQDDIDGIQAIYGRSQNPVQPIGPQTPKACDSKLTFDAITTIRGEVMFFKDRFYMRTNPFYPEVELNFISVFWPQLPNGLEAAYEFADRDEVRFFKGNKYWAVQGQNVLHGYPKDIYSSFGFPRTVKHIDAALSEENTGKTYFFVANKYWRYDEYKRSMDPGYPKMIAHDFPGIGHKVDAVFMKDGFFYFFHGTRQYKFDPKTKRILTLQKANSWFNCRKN
Procedure: Collagenase activity was measured using ^14 C-acetylated collagen type I from rat tail tendons as the substrate and employing the microtitre plate assay method of Johnson-Wint, B. Anal. Biochem. (1980), 104, 175. The IC50 is that concentration of a compound of formula I of the invention in the enzyme digestion which reduces substrate cleavage and solubilization to 50% of that achieved by the enzyme alone.
The results obtained in the foregoing test with representative compounds of this invention are compiled in the Table I hereinafter: […]

female rats = assay: in vivo type II collagen/Freund's incomplete adjuvant rat test: hind paw inflammation and radiological change; details: 20 mg kg^-1 twice daily for 12 days via jugular vein catheter
Procedure: Groups of female rats received an intradermal injection into the shaved backs of 10×0.1 ml of an emulsion of type II collagen/Freund's incomplete adjuvant. Ten days later the test compound was administered twice daily at a dosage of 20 mg kg^-1 via indwelling jugular vein catheters; dosing was continued for 12 days. Groups of rats which received the intradermal injection, but which were not treated with test compounds, served as the control. The incidence of hind paw inflammation was assessed visually at intervals throughout the test and was expressed as the proportion of the group showing signs of erythema and/or swelling. Radiological change in the ankle region of the hind paws was assessed at the termination of the test and was quantified using an arbitrary scale of from 0=normal to 6=severe change, results being expressed as group means. Statistical analysis was performed using the Mann-Whitney "U" test.

| IC50 [1] [µM] | Compound | Inflammation day 4 (female rats; proportion of group showing erythema and/or swelling of hind paw, Control 8/11) | Radiological scores, Tarsus (female rats; scale 0=normal to 6=severe change, group mean at termination, Control 1.75 ± 0.45) | Radiological scores, Talus (female rats; scale 0=normal to 6=severe change, group mean at termination, Control 2.28 ± 0.53) |
| --- | --- | --- | --- | --- |
| 0.16 | CNC(=O)[C@H](CC(C)C)NC(=O)C(CC(C)C)CP(=O)(O)CN1C(=O)c2cccc3cccc(c23)C1=O (stereo partly drawn) [Compound C, [(RS)-4-methyl-2-[[(S)-3-methyl-1-(methylcarbamoyl)butyl]carbamoyl]pentyl](1,8-naphthalendicarboximidomethyl)phosphinic acid] |  |  |  |
| 0.22 | CC(C)C[C@@H](CP(=O)(O)Cn1c(=O)[nH]c2ccccc2c1=O)C(=O)N[C@@H]1CCCCCCCCCCNC1=O (single isomer, unassigned) [Compound E, [[1,4-dihydro-2,4-dioxo-3(2H)-quinazolinyl]methyl][(R or S)-4-methyl-2-[[(R or S)-2-oxo-3-azacyclotridecyl]carbamoyl]pentyl]phosphinic acid] |  |  |  |
| 0.11 | CC(C)CC(CP(=O)(O)CN1C(=O)c2cccc3cccc(c23)C1=O)C(=O)NC1CCCCCCCCCCNC1=O (single isomer, unassigned) [Compound D, [(R or S)-4-methyl-2-[[(R or S)-2-oxo-3-azacyclotridecyl]carbamoyl]pentyl](1,8-naphthalenedicarboximidomethyl)phosphinic acid] | 3/12 | 0.64 ± 0.37 | 0.86 ± 0.34 |
| 0.056 | CC(C)CC(CP(=O)(O)CNC(=O)[C@H](CC(C)C)NC(=O)[C@@H]1CCCN1C(=O)OCc1ccccc1)C(=O)N[C@@H](CC(C)C)C(=O)N[C@@H](C)C(=O)O (single isomer, unassigned) [Compound A, N-[N-[(R or S)-2-[[[[[N-[1-[(benzyloxy)carbonyl]-L-prolyl]-L-leucyl]amino]methyl]hydroxyphosphinyl]methyl]-4-methylvaleryl]-L-leucyl]-L-alanine] |  |  |  |
| 0.6 | CNC(=O)[C@H](CC(C)C)NC(=O)C(CC(C)C)CP(=O)(O)CN1C(=O)c2cccc(N)c2C1=O (mixture of isomers) [Compound B, [(3-aminophthalimido)methyl][(RS)-4-methyl-2-[[(S)-3-methyl-1-(methylcarbamoyl)butyl]carbamoyl]pentyl]phosphinic acid] |  |  |  |
